Patent US10941152B2, “Pyrazole compounds as modulators of FSHR and uses thereof” (TOCOPHERX, INC., priority 2014, dated 2021)

What was measured:
[1] = target: T1, follicle-stimulating hormone (FSH) receptor (Rattus norvegicus, UniProt P20395); experiment: Rat granulosa EC50 FSH (Assay B); assay type: cell-based
T1 construct: endogenous in cells; host or cells: rat granulosa cells
T1 sequence (P20395 18-692): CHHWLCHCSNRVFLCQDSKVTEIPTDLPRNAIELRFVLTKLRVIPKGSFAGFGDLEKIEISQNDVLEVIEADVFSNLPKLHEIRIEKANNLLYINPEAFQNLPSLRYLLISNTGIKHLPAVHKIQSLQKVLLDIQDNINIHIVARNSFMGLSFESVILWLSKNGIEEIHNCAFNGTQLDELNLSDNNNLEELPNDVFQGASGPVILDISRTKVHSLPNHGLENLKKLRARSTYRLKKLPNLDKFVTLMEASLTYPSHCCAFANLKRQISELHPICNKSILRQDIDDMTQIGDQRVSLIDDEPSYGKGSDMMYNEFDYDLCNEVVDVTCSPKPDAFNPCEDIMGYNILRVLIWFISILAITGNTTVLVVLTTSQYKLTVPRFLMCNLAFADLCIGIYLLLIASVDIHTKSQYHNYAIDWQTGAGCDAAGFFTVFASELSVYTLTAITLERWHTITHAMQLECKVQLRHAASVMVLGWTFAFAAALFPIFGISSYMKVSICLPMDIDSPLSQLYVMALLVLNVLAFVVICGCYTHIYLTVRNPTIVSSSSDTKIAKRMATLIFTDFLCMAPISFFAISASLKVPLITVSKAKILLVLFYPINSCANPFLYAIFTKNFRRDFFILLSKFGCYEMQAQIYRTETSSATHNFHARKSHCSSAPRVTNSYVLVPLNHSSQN
Experimental: Example 25. Rat granulosa EC50 FSH (Assay B)
The assay was performed pursuant to the teaching of Yanofsky et al. (2006) Allosteric activation of the follicle-stimulating hormone (FSH) receptor by selective, nonpeptide agonists (JBC 281(19): 13226-13233, which is incorporated by reference in the disclosure of the invention).

[2] = target: T2, FSHR (Homo sapiens, UniProt P23945); experiment: EC50 of cyclic AMP production in CHO FSHR cells + EC20 FSH (Assay A); assay type: cell-based; conditions: cyclic AMP production in CHO FSHR cells + EC20 FSH (0.265 pM), HTRF
T2 construct: expressed in transfected cells; host or cells: CHO (Cho-FSHR-LUC-1-1-43)
T2 sequence (P23945 18-695): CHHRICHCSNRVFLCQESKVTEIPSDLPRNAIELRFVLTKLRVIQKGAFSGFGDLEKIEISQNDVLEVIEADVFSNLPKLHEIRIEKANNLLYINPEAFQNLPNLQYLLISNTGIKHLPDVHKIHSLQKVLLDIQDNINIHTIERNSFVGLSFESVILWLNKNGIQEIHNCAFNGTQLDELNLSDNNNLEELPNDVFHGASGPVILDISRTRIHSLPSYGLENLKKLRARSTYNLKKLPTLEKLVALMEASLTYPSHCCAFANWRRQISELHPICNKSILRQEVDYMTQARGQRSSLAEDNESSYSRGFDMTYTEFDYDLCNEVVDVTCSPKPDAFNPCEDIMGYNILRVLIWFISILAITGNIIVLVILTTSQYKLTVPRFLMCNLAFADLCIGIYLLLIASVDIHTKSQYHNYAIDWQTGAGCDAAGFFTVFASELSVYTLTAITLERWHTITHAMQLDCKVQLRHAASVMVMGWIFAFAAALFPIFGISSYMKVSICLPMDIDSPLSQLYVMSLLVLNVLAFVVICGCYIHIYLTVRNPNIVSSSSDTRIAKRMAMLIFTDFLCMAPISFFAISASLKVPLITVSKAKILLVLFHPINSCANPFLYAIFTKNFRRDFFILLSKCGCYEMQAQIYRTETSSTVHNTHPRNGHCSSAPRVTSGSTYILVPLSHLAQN
How it was run: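 cAMP was detected by HTRF as the 665/620 nm ratio. The CHO-FSHR cells had first been exposed for 1 h at 37° C to test compound together with 0.265 pM FSH (EC20) and 200 μM IBMX. Responses are given as percent of the FSH standard maximum.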

Compound	EC50 [1] [nM]	EC50 [2] [nM]
COc1cc2c(cc1-c1ccn(C)n1)-c1c(c(C(=O)N3CCOCC3(C)C)nn1-c1cc(Cl)cc(Cl)c1)CO2 [Compound 9, (1-(3,5-dichlorophenyl)-7-methoxy-8-(1-methyl-1H-pyrazol-3-yl)-1,4-dihydrochromeno[4,3-c]pyrazol-3-yl)(3,3-dimethylmorpholino)methanone]	101 to 500	< 10
COc1cc2c(cc1-c1cnc(C)c(C(N)=O)c1)-c1c(c(C(=O)N(C)C(C)(C)C)nn1-c1cc(Cl)cc(Cl)c1)CO2 [Compound 170]	101 to 500	< 10
COc1cc2c(cc1-c1cncc(C(N)=O)c1C)-c1c(c(C(=O)N(C)C(C)(C)C#N)nn1-c1cc(F)cc(F)c1)CO2 [Compound 119, 8-(5-carbamoyl-4-methylpyridin-3-yl)-N-(2-cyanopropan-2-yl)-1-(3,5-difluorophenyl)-7-methoxy-N-methyl-1,4-dihydrochromeno[4,3-c]pyrazole-3-carboxamide]	101 to 500	< 10
COc1cc(OC)cc(-n2nc(C(=O)N(C)C(C)(C)C)c3c2-c2cc(-c4ccccn4)c(OC)cc2OC3)c1 [Compound 46, N-tert-butyl-1-(3,5-dimethoxyphenyl)-7-methoxy-N-methyl-8-(pyridin-2-yl)-1,4-dihydrochromeno[4,3-c]pyrazole-3-carboxamide]	101 to 500	10 to 100
COc1cc(F)cc(-n2nc(C(=O)N(C)C(C)(C)C)c3c2-c2cc(-c4cncc(C#N)c4)c(OC)cc2OC3)c1 [Compound 54, N-tert-butyl-8-(5-cyanopyridin-3-yl)-1-(3-fluoro-5-methoxyphenyl)-7-methoxy-N-methyl-1,4-dihydrochromeno[4,3-c]pyrazole-3-carboxamide]	10 to 100	< 10
COc1cc2c(cc1-c1cnn(CC(O)CO)c1)-c1c(c(C(=O)N(C)C(C)(C)C)nn1-c1cc(Cl)cc(Cl)c1)CO2 (centres unmarked) [Compound 190, N-tert-butyl-1-(3,5-dichlorophenyl)-8-(1-(2,3-dihydroxypropyl)-1H-pyrazol-4-yl)-7-methoxy-N-methyl-1,4-dihydrochromeno[4,3-c]pyrazole-3-carboxamide]	> 500	10 to 100
COc1cc2c(cc1OC(C)CO)-c1c(c(C(=O)N(C)C(C)(C)C)nn1-c1ccsc1)CO2 (centres unmarked) [Compound 193, N-tert-butyl-8-(1-hydroxypropan-2-yloxy)-7-methoxy-N-methyl-1-(thiophen-3-yl)-1,4-dihydrochromeno[4,3-c]pyrazole-3-carboxamide]	101 to 500	10 to 100
COc1cc(OC)cc(-n2nc(C(=O)N(C)C(C)(C)C)c3c2-c2cc(-c4cc(C(N)=O)c[n+]([O-])c4)c(OC)cc2OC3)c1 [Compound 175]	10 to 100	< 10
COc1cc(Cl)cc(-n2nc(C(=O)N3CCOCC3(C)C)c3c2-c2cc(-c4cnn(CC(=O)O)c4)c(OC)cc2OC3)c1 [Compound 86, 2-(4-(1-(3-chloro-5-methoxyphenyl)-3-(3,3-dimethylmorpholine-4-carbonyl)-7-methoxy-1,4-dihydrochromeno[4,3-c]pyrazol-8-yl)-1H-pyrazol-1-yl)acetic acid]	101 to 500	< 10
COc1cc(OC)cc(-n2nc(C(=O)N3CCOCC3(C)C)c3c2-c2cc(-c4cncc(C(N)=O)c4)c(OC)cc2OC3)c1 [Compound 159]	10 to 100	< 10
COc1cc2c(cc1CC(C)C)-c1c(c(C(=O)N3CCC(=O)CC3(C)C)nn1-c1ccsc1)CO2 [Compound 125, 1-(8-isobutyl-7-methoxy-1-(thiophen-3-yl)-1,4-dihydrochromeno[4,3-c]pyrazole-3-carbonyl)-2,2-dimethylpiperidin-4-one]	10 to 100	< 10
COc1cc(OC)cc(-n2nc(C(=O)N(C)C(C)(C)CCO)c3c2-c2cc(-c4cccnc4F)c(OC)cc2OC3)c1 [Compound 135, 1-(3,5-dimethoxyphenyl)-8-(2-fluoropyridin-3-yl)-N-(4-hydroxy-2-methylbutan-2-yl)-7-methoxy-N-methyl-1,4-dihydrochromeno[4,3-c]pyrazole-3-carboxamide]	10 to 100	< 10
COc1cc2c(cc1-c1cccnc1F)-c1c(c(C(=O)N(C)C(C)(C)C)nn1-c1ccsc1)CO2 [Compound 55, N-tert-butyl-8-(2-fluoropyridin-3-yl)-7-methoxy-N-methyl-1-(thiophen-3-yl)-1,4-dihydrochromeno[4,3-c]pyrazole-3-carboxamide]	10 to 100	< 10
COCC1(CC(F)(F)F)CCCN1C(=O)c1nn(-c2ccsc2)c2c1COc1cc(OC)c(-c3ccn(C)n3)cc1-2 (centres unmarked) [Compound 131, (7-methoxy-8-(1-methyl-1H-pyrazol-3-yl)-1-(thiophen-3-yl)-1,4-dihydrochromeno[4,3-c]pyrazol-3-yl)(2-(methoxymethyl)-2-(2,2,2-trifluoroethyl)pyrrolidin-1-yl)methanone]	10 to 100	10 to 100
COc1cc(OC)cc(-n2nc(C(=O)N3CCOCC3(C)C)c3c2-c2cc(-c4cccnc4F)c(OC)cc2OC3)c1 [Compound 42, (1-(3,5-dimethoxyphenyl)-8-(2-fluoropyridin-3-yl)-7-methoxy-1,4-dihydrochromeno[4,3-c]pyrazol-3-yl)(3,3-dimethylmorpholino)methanone]	10 to 100	< 10
COc1cc2c(cc1-c1ccn(C)n1)-c1c(c(C(=O)N(C)C(C)(C)C#N)nn1-c1cc(F)cc(F)c1)CO2 [Compound 106, N-(2-cyanopropan-2-yl)-1-(3,5-difluorophenyl)-7-methoxy-N-methyl-8-(1-methyl-1H-pyrazol-3-yl)-1,4-dihydrochromeno[4,3-c]pyrazole-3-carboxamide]	> 500	10 to 100
COc1cc2c(cc1-c1cncc(C(N)=O)c1)-c1c(c(C(=O)N(C)C(C)(C)C)nn1-c1ccsc1)CO2 [Compound 167]	10 to 100	< 10
COc1cc2c(cc1-c1cncc(N)c1)-c1c(c(C(=O)N(C)C(C)(C)C)nn1-c1cc(Cl)cc(Cl)c1)CO2 [Compound 20, 8-(5-aminopyridin-3-yl)-N-tert-butyl-1-(3,5-dichlorophenyl)-7-methoxy-N-methyl-1,4-dihydrochromeno[4,3-c]pyrazole-3-carboxamide]	101 to 500	< 10
COc1cc2c(cc1-c1nn(C)cc1Cl)-c1c(c(C(=O)N3CCOCC3(C)C)nn1-c1cc(F)cc(F)c1)CO2 [Compound 151]	10 to 100	< 10
COc1cc2c(cc1-c1nc[nH]n1)-c1c(c(C(=O)N(C)C(C)(C)C)nn1-c1ccsc1)CO2 [Compound 207, N-tert-butyl-7-methoxy-N-methyl-1-(thiophen-3-yl)-8-(1H-1,2,4-triazol-3-yl)-1,4-dihydrochromeno[4,3-c]pyrazole-3-carboxamide]	101 to 500	< 10
COc1cc2c(cc1-c1cccc(C#N)c1)-c1c(c(C(=O)N(C)C(C)(C)C)nn1-c1cc(Cl)cc(Cl)c1)CO2 [Compound 18, N-tert-butyl-8-(3-cyanophenyl)-1-(3,5-dichlorophenyl)-7-methoxy-N-methyl-1,4-dihydrochromeno[4,3-c]pyrazole-3-carboxamide]	101 to 500	10 to 100
COc1cc2c(cc1-c1cnn(CC(=O)N(C)C)c1)-c1c(c(C(=O)N(C)C(C)(C)C)nn1-c1cc(Cl)cc(Cl)c1)CO2 [Compound 90, N-tert-butyl-1-(3,5-dichlorophenyl)-8-(1-(2-(dimethylamino)-2-oxoethyl)-1H-pyrazol-4-yl)-7-methoxy-N-methyl-1,4-dihydrochromeno[4,3-c]pyrazole-3-carboxamide]	101 to 500	< 10
